Assay results taken from patent US10633363B2, “EPAC1 activators as HIV latency reversal agents (LRA)” (The Board of Regents of The University of Texas System, priority 2017, dated 2020).
“Also recorded” adds a separate entry of the source.

Assays:
latent HIV in NNTC PBMC [1] = assay: Activation of latent HIV gene expression (3'LTR PCR) in PBMC of ART-suppressed, aviremic HIV-infected subjects (NNTC); assay type: cell-based; settings: for HIV gene expression, PCR quantification of HIV 3'LTR vs NC: fresh and frozen PBMC of one NNTC subject, 48 hours, ZL0568 10 M (so in the source)
Description: FIG. 6A. Relative HIV gene expression in one representative PBMC following different treatments. Fresh and cryopreserved PBMC of the same donor were compared.
FIG. 6C. Relative HIV gene expression in multiple BMCs (n=8) after treatments were summarized.
The ability of compound ZL0568 to activate latent HIV in PBMC of ART-suppressed, aviremic HIV-infected subjects was tested. PBMC samples were obtained from the well-established HIV infection cohort from the National NeuroAIDS Tissue Consortium (NNTC) with (66, 67). First, feasibility of using NNTC's cryopreserved PBMC in the experiments was explored by comparing the results from fresh and frozen PBMC of the same subject. […] Thus, fresh and cryopreserved PBMC from a representative NNTC subject (ID: 8400337177) were stimulated with compound ZL0568 (10 M) as compared to stimulation with mock (NC) or positive controls (JQ1, Prostratin and PMA; concentrations of positive controls were used as previously reported (21, 25)).
(§1) HIV release in the supernatants of PBMC at 72 hours after treatments using the 1G5 luciferase reporter assay (68, 69) was measured and very similar results were found (FIG. 6B). We noted that although the levels of HIV activation in frozen PBMC were generally lower than those in fresh PBMC, the differences among different treatments were consistently detected (FIG. 6A-B), supporting the feasibility of using NNTC's cryopreserved PBMCs in our system.
(§2) Compound ZL0568 was further tested in multiple NNTC's donor PBMCs (n=8) for HIV gene activation (FIG. 6C) as well as viral production (FIG. 6D).

[2] = tested on: latent HIV in J-lat cells; assay: Activation of GFP expression (latent HIV reactivation) in J-lat cells; assay type: cell-based; settings: for GFP expression in J-lat cells: flow cytometry, 10 M (so in the source); for Ability to stimulate GFP expression in J-lat cells compared with ZL0568 (SAR): 10 μM
Description: FIG. 2A. Assessment of compound ZL0568, an exemplary embodiment of the invention, for the ability to stimulate GFP expression in J-lat cells. GFP fluorescence intensity was measured by microplate reader.
FIG. 2C. Dose-dependent activation of GFP expression in J-lat cells by ZL0568 measured by flow cytometry.
Dose-dependent activation of GFP expression by ZL0568 in J-lat cells was confirmed by flow cytometric analysis with an EC50 value of 8 μM (in DMSO) (FIG. 2C-D). […] See e.g., FIG. 8A-E.
Specificity and structure-activity relationship (SAR) for ZL0568 was determined by synthesizing and testing four analogues (ZL0696, ZL0697, ZL0699 and ZL06100; 10 μM).

[3] = tested on: latent HIV in human monocytic U1 cells; assay: Activation of latent HIV in U1 cells, intracellular HIV p24 staining by flow cytometry; assay type: cell-based; settings: various concentrations, 48 hours
Description: FIG. 4. Activation of latent HIV by compound ZL0568 in U1 cells. U1 cells were stimulated with various concentrations of compound ZL0568 as indicated or mock-stimulated (NC) for 48 hours. Reactivation of latent HIV were examined based on intracellular HIV p24 staining (p24%) by flow cytometry.
Whether or not compound ZL0568, an exemplary embodiment of the invention, can activate latent HIV in human monocytic U1 cells was evaluated. In particular, U1 cells were stimulated with various concentrations of ZL0568 or mock DMSO (NC). Reactivation of latent HIV was measured based on intracellular HIV p24 staining by flow cytometry.

HIV in RV21 PBMC = assay: Activation of HIV gene expression in PBMC of ART-naive, viremic HIV-infected individuals (RV21); assay type: cell-based
Description: FIG. 5A Activation of HIV gene expression (3′ LTR) in a representative RV21 PBMC on Day 1, 2 and 5 after stimulation. The data are shown as fold change to NC.
A significant limitation for some existing LRAs (e.g. HDACi & BETi) is related to their limited efficacy to activate latent HIV in primary cells (16, 17, 19-21). Whether or not our compound ZL0568 can stimulate HIV gene expression in human PBMC from ART-naïve, viremic HIV-infected individuals was assessed using cells from the RV21, an ART-naïve, HIV infection cohort at the Military HIV Research Program (MHRP). See e.g., Liu F, et al. Sequential Dysfunction and Progressive Depletion of Candida albicans-Specific CD4 T Cell Response in HIV-1 Infection. PLoS Pathog 12(6):e1005663 (2016). A widely-used method to detect HIV transcription in cells from infected individuals involves measurement of RNAs containing HIV gag sequences. […] See e.g., Bullen C K, Laird G M, Durand C M, Siliciano J D, & Siliciano R F, New ex vivo approaches distinguish effective and ineffective single agents for reversing HIV-1 latency in vivo. Nat Med 20(4):425-429 (2014).
Therefore, in addition to Gag, a new PCR assay, established by the Siliciano group, specific for intracellular HIV mRNA using a primer/probe set that detects the 3′-sequence common to all correctly terminated HIV RNAs was employed. […]

latent HIV in NNTC PBMC [4] = assay: HIV release in supernatants of treated PBMC, 1G5 luciferase reporter assay; assay type: cell-based; settings: multiple NNTC donor PBMCs (n=8), p<0.01
Description: FIG. 6B. Relative viral release in one representative PBMC following different treatments. Fresh and cryopreserved PBMC of the same donor were compared.
FIG. 6D. HIV release in supernatants of treated PBMC was measured by 1G5 reporter luciferase assay and compared between ZL0568 and NC.
as §1, §2

[5] = Cellular toxicity on J-lat cells (% viable cells); assay type: cell-based; settings: stated for J-lat and human PBMC together; cell type not specified; read-out: cytotoxicity CC50
Description: (§3) FIG. 8A. Cellular toxicity of ZL0568 on J-lat cells. Toxicity was measured as % viable cells at Day 1, 2 and 3 after stimulation at various concentrations.
(§4) Cellular toxicity profile of ZL0568 and its effects on human T cells was evaluated. […] This possibility was precluded since apoptosis was recently shown to be associated with HIV reactivation (68).

J-lat cells = assay: Cellular toxicity on J-lat cells (% viable cells); assay type: cell-based; settings: J-lat cells; 40 μM
Description: as §3, §4

human PBMC = assay: Cellular toxicity on human PBMC (% viable cells); assay type: cell-based; settings: 40 μM
Description: FIG. 8B. Cellular toxicity of ZL0568 on human PBMC. Toxicity was measured as % viable cells at Day 1, 2 and 3 after stimulation at various concentrations.
as §4

T cells [6] = assay: Caspase-3 and Caspase-1 expression in T cells; assay type: cell-based, human; settings: 24 hours, vs NC
Description: FIG. 8C. Caspase-3 and Caspase-1 expression in T cells with ZL0568 stimulation as compared to NC (24 hours).
as §4

T cells [7] = assay: T-cell activation marker expression (CD25, CD38, CD69, HLA-DR) by flow cytometry; assay type: cell-based, human; settings: 10 μM
Description: FIG. 8D. T-cell activation by ZL0568. Activation marker expression (CD25, CD38, CD69, HLA-DR) on T-cells was measured flow cytometry and compared between ZL0568 (10 uM) and NC.
as §4

T cells [8] = assay: Expression of cytokines in T cells by intracellular cytokine staining; assay type: cell-based, human; settings: 10 uM, 24 hours
Description: FIG. 8E. Expression of cytokines (% IFN-r, IL-2, MIP-1b or IL-17) in T cells between ZL0568 treatment (10 uM) and NC (24 hours), measured by intracellular cytokine staining.
as §4

[9] = tested on: EPAC (EPAC1) in J-lat cells; assay: 007-AM-stimulated GFP expression in J-lat cells after CRISPR/Cas9 knock out of EPAC; assay type: cell-based
Excerpt: FIG. 3F. Functional involvement of EPAC in 007-AM stimulated HIV reactivation in J-lat cells.

Row | SMILES | HIV gene expression, PCR quantification of HIV 3'LTR vs NC (latent HIV in NNTC PBMC [1]) | GFP expression / HIV reactivation in J-lat cells (in words) [2] | GFP expression in J-lat cells [2] [%] | Ability to stimulate GFP expression in J-lat cells compared with ZL0568 (SAR) [2] | further results
1 | CC(=O)O[C@@]12C[C@@H](C)[C@@]3(O)[C@@H](C=C(CO)C[C@]4(O)C(=O)C(C)=C[C@@H]34)[C@@H]1C2(C)C [Prostratin] | markedly activated HIV gene expression | – | – | – | –
2 | CCCCCCCCCCCCCC(=O)O[C@@H]1[C@@H](C)[C@@]2(O)[C@@H](C=C(CO)C[C@]3(O)C(=O)C(C)=C[C@@H]23)[C@@H]2C(C)(C)[C@]12OC(C)=O [PMA] | markedly activated HIV gene expression | – | – | – | –
3 | Cn1cc(C(=O)/C(C#N)=N/Nc2ccc(Cl)c(C(F)(F)F)c2)c2ccccc21 [ZL0568, (E)-N-(4-chloro-3-(trifluoromethyl)phenyl)-2-(1-methyl-1H-indol-3-yl)-2-oxoacetohydrazonoyl Cyanide] | significant HIV gene expression | significant GFP expression | 21.7 | – | EC50 ([2]; Human immunodeficiency virus 1, flow cytometric analysis, in DMSO, read-out: EC50, dose-dependent activation of GFP expression in J-lat cells): 8 µM; HIV reactivation in U1 cells based on p24 expression [3]: could also stimulate HIV reactivation in U1 cells in a dose-dependent manner; HIV gene expression (3'LTR and Gag together) vs NC (HIV in RV21 PBMC; ART-naive RV21 PBMCs, Day 2, p<0.005): could significantly activate HIV gene expression; HIV 3'-LTR gene expression, time course (HIV in RV21 PBMC; representative RV21 PBMC, 10 M (so in the source), Day 1, 2 and 5): induced HIV 3′-TLR expression on Day 2 after stimulation, which became less significant on Day 5; HIV gene activation vs NC (latent HIV in NNTC PBMC [1]; multiple NNTC donor PBMCs (n=8), p<0.01): enhanced HIV activation; Viral production vs NC (latent HIV in NNTC PBMC [4]): enhanced HIV activation; CC50 [5]: 75 µM; Cellular toxicity, % viable cells (J-lat cells): limited cellular toxicity; Cellular toxicity, % viable cells (human PBMC): limited cellular toxicity; Induction of cell death signals (caspase-3/caspase-1) (T cells [6]): no preferential induction of cell death signals; CD69 and HLA-DR expression (T cells [7]): no significant increase; T-cell activation, expression of CD25 and CD38 (T cells [7]; p<0.001): modest level of T-cell activation; Expression of inflammatory cytokines in T cells (IFN-γ, IL-2, MIP-1b, IL-17) (T cells [8]): did not induce expression of inflammatory cytokines
4 | Cn1cc(C(=O)/C(C#N)=N/Nc2cc(Cl)cc(Cl)c2)c2ccccc21 [ZL0699, (E)-N-(3,5-Dichlorophenyl)-2-(1-methyl-1H-indol-3-yl)-2-oxoacetohydrazonoyl Cyanide] | – | – | – | substantially abrogated the ability to stimulate GFP expression | –
5 | Cn1cc(C(=O)/C(C#N)=N/Nc2cccc(Cl)c2)c2ccccc21 [ZL0697, (E)-N-(3-Chlorophenyl)-2-(1-methyl-1H-indol-3-yl)-2-oxoacetohydrazonoyl Cyanide] | – | – | – | substantially abrogated the ability to stimulate GFP expression | –
6 | Cn1cc(C(=O)/C(C#N)=N/Nc2ccccc2Cl)c2ccccc21 [ZL0696, (E)-N-(2-Chlorophenyl)-2-(1-methyl-1H-indol-3-yl)-2-oxoacetohydrazonoyl Cyanide] | – | – | – | substantially abrogated the ability to stimulate GFP expression | –
7 | CO[C@@H]1[C@@H]2OP(=O)(OCOC(C)=O)OC[C@H]2O[C@H]1n1c(Sc2ccc(Cl)cc2)nc2c(N)ncnc21 (stereo partly shown) [007-AM, reference compound] | – | significant HIV reactivation | 12.8 | – | 007-AM-stimulated GFP expression after ablation of EPAC [9]: marked decrease
8 | CC(C)(C)c1cc(C(=O)/C(C#N)=N/Nc2cccc(Cl)c2)no1 [ESI-09, reference compound] | – | no HIV activation effect; also recorded: no GFP-activating effect | – | – | –
9 | Cn1cc(C(=O)/C(C#N)=N/Nc2ccc3c(c2)CCC(=O)N3)c2ccccc21 [ZL06100, (E)-2-(1-Methyl-1H-indol-3-yl)-2-oxo-N-(2-oxo-1,2,3,4-tetrahydroquinolin-6-yl)acetohydrazonoyl Cyanide] | – | – | – | still maintained some potency | –
10 | Cc1sc2c(c1C)C(c1ccc(Cl)cc1)=N[C@@H](CC(=O)OC(C)(C)C)c1nnc(C)n1-2 [JQ1, reference compound] | failed to do so | – | 8.97 | – | –
